The source of these data is patent US5258362A, “Renin inhibiting compounds” (Abbott Laboratories, priority 1992, dated 1993).

What is called IC50 is the concentration at which inhibition is half-maximal. Lower therefore signals higher potency.

The assay deals with T1, human renal renin (Homo sapiens, UniProt P00797).
T1 construct: human renal renin, free from acid proteolytic activity; from tissue; host or cells: human kidney (from the word 'renal')
T1 sequence (P00797 67-406): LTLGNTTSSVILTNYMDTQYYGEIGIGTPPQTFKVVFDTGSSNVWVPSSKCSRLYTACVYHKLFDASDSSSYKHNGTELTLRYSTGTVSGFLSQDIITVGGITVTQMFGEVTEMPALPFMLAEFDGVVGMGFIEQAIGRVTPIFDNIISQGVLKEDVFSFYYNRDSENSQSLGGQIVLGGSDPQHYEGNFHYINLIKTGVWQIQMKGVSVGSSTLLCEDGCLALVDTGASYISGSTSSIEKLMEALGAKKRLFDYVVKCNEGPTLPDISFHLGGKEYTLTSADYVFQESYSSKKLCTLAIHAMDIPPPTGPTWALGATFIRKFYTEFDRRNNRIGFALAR
In words: Inhibition of human renal renin in vitro (angiotensin I formed, measured by radioimmunoassay). Type of assay: biochemical. The settings on record: human renal renin with renin substrate (human angiotensinogen), 37° C., pH 6.0. As for the experimental part:
At the end of the incubation, the amount of angiotensin I formed is measured by radioimmunoassay and the molar concentration required to cause 50% inhibition, expressed as the IC50 is calculated.
Compound `CCCC[C@H](NC(=O)C(Cc1ccccc1)Cn1ccnc1)C(=O)N[C@@H](CC1CCCCC1)[C@@H](O)[C@H]1OC[C@@H]1CC` (mixture of isomers) [Example 154, (2RS)-2-Benzyl-3-(imidazol-1-yl)propionyl-(nor)Leucine Amide of (1R,2S,2'S,3'S)-2-Amino-3-cyclohexyl-1-[3'-(ethyl)oxetan-2'-yl]-1-(hydroxy)propane] returned an IC50 of 0.7 nM. For `CC[C@H]1CO[C@@H]1[C@H](O)[C@H](CC1CCCCC1)NC(=O)C(Cc1cnc[nH]1)NC(=O)C(Cc1ccccc1)NC(=O)OC(C)(C)C` (stereo partly drawn) [Example 40, Boc-Phe-His Amide of (1R,2S,2'S,3'S)-2-Amino-3-cyclohexyl-1-[3'-(ethyl)oxetan-2'-yl]-1-(hydroxy)propane], the midpoint of inhibition, the IC50, lay at 0.47 nM. In the case of `CC(C)[C@H]1CO[C@@H]1[C@H](O)[C@H](CC1CCCCC1)NC(=O)[C@H](Cc1cnc[nH]1)NC(=O)[C@H](Cc1ccccc1)NC(=O)OC(C)(C)C` [Example 41, Boc-Phe-His Amide of (1R,2S,2'S,3'S)-2-Amino-3-cyclohexyl-1-hydroxy-1-[3'-(isopropyl)oxetan-2'- yl]propane] it was 0.61 nM; in that of `CCC[C@H]1CO[C@@H]1[C@H](O)[C@H](CC1CCCCC1)NC(=O)C(Cc1cnc[nH]1)NC(=O)C(Cc1ccccc1)NC(=O)OC(C)(C)C` (stereo partly drawn) [Example 43, Boc-Phe-His Amide of (1R,2S,2'S,3'S)-2-Amino-3-cyclohexyl-1-hydroxy-1-[3'-(propyl)oxetan-2'-yl]propane], 0.38 nM. For the compound `CC(C)C[C@H]1CO[C@@H]1[C@H](O)[C@H](CC1CCCCC1)NC(=O)[C@H](Cc1cnc[nH]1)NC(=O)[C@H](Cc1ccccc1)NC(=O)OC(C)(C)C` [Example 44, Boc-Phe-His Amide of (1R,2S,2'S,3'S)-2-Amino-3-cyclohexyl-1-hydroxy-1-[3'-(isobutyl)oxetan-2'-yl]propane], the IC50 worked out at 1.1 nM. `CC(C)(C)OC(=O)NC(Cc1ccccc1)C(=O)NC(Cc1cnc[nH]1)C(=O)N[C@@H](CC1CCCCC1)[C@@H](O)[C@@H]1CCO1` (stereo partly drawn) [Example 45, Boc-Phe-His Amide of (1R,2S,2'S)-2-Amino-3-cyclohexyl-1-hydroxy-1-(oxetan-2'-yl)propane] yielded an IC50 of 1.2 nM. In the case of `C[C@H]1CO[C@@H]1[C@H](O)[C@H](CC1CCCCC1)NC(=O)C(Cc1cnc[nH]1)NC(=O)C(Cc1ccccc1)NC(=O)OC(C)(C)C` (stereo partly drawn) [Example 46, Boc-Phe-His Amide of (1R,2S,2'S,3'S)-2-Amino-3-cyclohexyl-1-hydroxy-1-[3'-(methyl)oxetan-2'-yl]propane], half-maximal inhibition (IC50) was put at 0.51 nM. This IC50 lies about 2.4-fold lower than the previous one.

Consider `CC([C@H]1CO[C@@H]1[C@H](O)[C@H](CC1CCCCC1)NC(=O)[C@H](Cc1cnc[nH]1)NC(=O)[C@H](Cc1ccccc1)NC(=O)OC(C)(C)C)C(F)(F)F` (stereo partly drawn) [Example 47, Boc-Phe-His Amide of (1R,2S,2'S,3'S)-2-Amino-3-cyclohexyl-1-hydroxy-1-[3'-(1,1,1-trifluoroisopropyl)oxetan-2'-yl]propane], for which the IC50 came out at 1.2 nM. `CC(C)(C)OC(=O)N[C@@H](Cc1ccccc1)C(=O)N[C@@H](Cc1cnc[nH]1)C(=O)N[C@@H](CC1CCCCC1)[C@@H](O)[C@H]1OCC1(C)C` [Example 48, Boc-Phe-His Amide of (1R,2S,2'S)-2-Amino-3-cyclohexyl-1-[3',3'-(dimethyl)oxetan-2'-yl]-1-(hydroxy)propane] gave an IC50 of 1 nM.

The compound `CC[C@H]1CO[C@@H]1[C@H](O)[C@H](CC1CCCCC1)NC(=O)C(Cc1cscn1)NC(=O)[C@H](Cc1ccccc1)CS(=O)(=O)N1CCN(C)CC1` (stereo partly drawn) [Example 68, (2S) 2-Benzyl-3-(1-methyl-piperazin-4-ylsulfonyl)propionyl-(4-thiazolyl)alanineAmide of (1R,2S,2'S,3'S)-2-Amino-3-cyclohexyl-1-[3'-(ethyl)oxetan-2'-yl]-1-(hydroxy)propane] yielded an IC50 of 0.19 nM. For `CC[C@H]1CO[C@@H]1[C@H](O)[C@H](CC1CCCCC1)NC(=O)[C@H](Cc1cscn1)NC(=O)[C@@H](CC(=O)N1CCOCC1)Cc1ccccc1` [Example 69, (2R)-2-Benzyl-3-(morpholinocarbonyl)propionyl-(4-thiazolyl)alanine Amide of (1R,2S,2'S,3'S)-2-Amino-3-cyclohexyl-1-[3'-(ethyl)oxetan-2'-yl]-1-(hydroxy)propane], the IC50 was 0.25 nM. In the case of `CC[C@H]1CO[C@@H]1[C@H](O)[C@H](CC1CCCCC1)NC(=O)C(Cc1cscn1)NC(=O)[C@@H](CC(=O)N1CCN(C)CC1)Cc1ccccc1` (stereo partly drawn) [Example 70, (2R)-2-Benzyl-3-[(4-methylpiperazin-1-yl)carbonyl]propionyl-(4-thiazolyl)alanine Amide of (1R,2S,2'S,3'S)-2-Amino-3-cyclohexyl-1-[3'-(ethyl)oxetan-2'-yl]-1-(hydroxy)propane] it was 0.2 nM.

Regarding `CC[C@H]1CO[C@@H]1[C@H](O)[C@H](CC1CCCCC1)NC(=O)[C@H](Cc1cscn1)NC(=O)[C@@H](CC(=O)N(C)CCc1ccccn1)Cc1ccccc1` [Example 71, (2R)-2-Benzyl-3-[(2-pyridin-2-ylethyl)methylaminocarbonyl]propionyl-(4-thiazolyl)alanine Amide of (1R,2S,2'S,3'S)-2-Amino-3-cyclohexyl-1-[3'-(ethyl)oxetan-2'-yl]-1-(hydroxy)propane], the IC50 turned out to be 0.27 nM.

For `CCCC[C@H](O[C@@H](Cc1ccccc1)C(=O)N1CCC(OCOC)CC1)C(=O)N[C@@H](CC1CCCCC1)[C@@H](O)[C@H]1OC[C@@H]1C(C)C` [Example 72, (2S)-[(1S)-[(Methoxymethoxy)piperidin-1-yl]carbonyl-2-phenylethoxy]hexanoicAcid Amide of (1R,2S,2'S,3'S)-2-Amino-3-cyclohexyl-1-[3'-(isopropyl)oxetan-2'-yl]-1-(hydroxy)propane], the IC50 amounted to 0.8 nM. This IC50 lies about 3-fold higher than the previous one. The result for `CC[C@H]1CO[C@@H]1[C@H](O)[C@H](CC1CCCCC1)NC(=O)C(Cc1cscn1)NC(=O)[C@H](Cc1ccccc1)Cn1ccnc1` (stereo partly drawn) [Example 76, (2R)-2-Benzyl-3-(imidazol-1-yl)propionyl-(4-thiazolyl)alanine Amide of (1R,2S,2'S,3'S)-1-Amino-3-cyclohexyl-1-[3'-(ethyl)oxetan-2'-yl]-1-(hydroxy)propane] reads 0.28 nM. The result for `CCCC[C@H](NC(=O)[C@@H](CC(=O)N1CCN(C)CC1)Cc1ccccc1)C(=O)N[C@@H](CC1CCCCC1)[C@@H](O)[C@H]1OC[C@@H]1CC` [Example 155, (2R)-2-Benzyl-3-(4-methylpiperazin-1-ylcarbonyl)propionyl(nor)Leucine Amide of (1R,2S,2'S,3'S)-2-Amino-3-cyclohexyl-1-[3'-(ethyl)oxetan-2'-yl]-1-(hydroxy)propane] reads 0.37 nM.

Compound `CC[C@H]1CO[C@@H]1[C@H](O)[C@H](CC1CCCCC1)NC(=O)[C@H](CC(C)C)NC(=O)[C@@H](CC(=O)N1CCN(C)CC1)Cc1ccccc1` [Example 163, (2R)-2-Benzyl-3-(4-methylpiperazin-1-ylcarbonyl)propionyl-leucine Amide of (1R,2S,2'S,3'S)-2-Amino-3-cyclohexyl-1-[3'-(ethyl)oxetan-2'-yl]-1-(hydroxy)propane] had an IC50 of 0.51 nM. In the case of `CCOC(=O)NC(Cc1ccccc1)C(=O)NC(CC(C)C)C(=O)N[C@@H](CC1CCCCC1)[C@@H](O)[C@H]1OC[C@@H]1CC` (stereo partly drawn) [Example 164, Ethoxycarbonyl-Phe-Leu Amide of (1R,2S,2'S,3'S)-2-Amino-3-cyclohexyl-1-[3'-(ethyl)oxetan-2'-yl]-1-(hydroxy)propane] it was 0.46 nM.

Turning to `CC[C@H]1CO[C@@H]1[C@H](O)[C@H](CC(C)C)NC(=O)C(Cc1cnc[nH]1)NC(=O)C(Cc1ccccc1)NC(=O)OC(C)(C)C` (stereo partly drawn) [Example 171, Boc-Phe-His Amide of (1R,2S,2'S,3'S)-2-Amino-1-[3'-(ethyl)oxetan-2'-yl]-1-hydroxy-4-(methyl)pentane], the IC50 stood at 0.5 nM.

Compound `CC[C@H]1CO[C@@H]1[C@H](O)[C@H](CC(C)C)NC(=O)C(Cc1cscn1)NC(=O)[C@H](Cc1ccccc1)CS(=O)(=O)N1CCN(C)CC1` (stereo partly drawn) [Example 178, (2S) 2-Benzyl-3-(1-methyl-piperazin-4-ylsulfonyl)propionyl-(4-thiazolyl)alanineAmide of (1R,2S,2'S,3'S)-2-Amido-1-[3'-(ethyl)oxetan-2'-yl]-1-hydroxy-4-(methyl)pentane] gave an IC50 of 0.38 nM. `CC[C@H]1CO[C@@H]1[C@H](O)[C@H](CC(C)C)NC(=O)C(Cc1cscn1)NC(=O)[C@H](Cc1ccccc1)Cn1ccnc1` (stereo partly drawn) [Example 181, (2R)-2-Benzyl-3-(imidazol-1-yl)propionyl-(4-thiazolyl)alanine Amide of (1R,2S,2S',3'S)-2-Amino-1-(3'-(ethyl)oxetan-2'-yl]-1-hydroxy-4-(methyl)pentane] returned an IC50 of 3.7 nM. As to `CC[C@H]1CO[C@@H]1[C@H](O)[C@H](CC1CCCCC1)NC(=O)[C@H](CC(C)C)NC(=O)[C@H](Cc1ccccc1)Cn1ccnc1` [Example 182, (2R)-2-Benzyl-3-(imidazol-1-yl)propionyl-Leucine Amide of (1R,2S,2'S,3'S)-2-Amino-3-cyclohexyl-1-[3'-(ethyl)oxetan-2'-yl]-1-(hydroxy)propane], the IC50 turned out to be 0.65 nM. This IC50 is about 5.7-fold lower than that of the compound before. The result for `CC[C@H]1CO[C@@H]1[C@H](O)[C@H](CC1CCCCC1)NC(=O)[C@H](CC(C)C)NC(=O)C(Cc1ccccc1)Cc1ccccc1` [Example 183, Dibenzylacetyl-Leucine Amide of (1R,2S,2'S,3'S)-2-Amino-3-cyclohexyl-1-[3'-(ethyl)oxetan-2'-yl]-1-(hydroxy)propane] reads 1.2 nM.
